The values below come from ChEMBL document CHEMBL6178023 (J Med Chem, 2025).

Data set [1] concerns Chikungunya virus. Kind of data set: Antiviral activity against CHIKV 181/25 expressing nLuc-capsid gene infected in human MRC5 cells assessed as reduction in viral replication preincubated with cells for 1 hr followed by viral infection measured after 6 hrs post-infection by Nano-glo luciferase assay. It is filed as functional, organism-based. Particulars: 181/25, MRC5, read-out: pEC50 (converted).

In data set [2] the test system is Chikungunya virus. Briefly: Inhibition of N-terminal 6-His/SUMO-tagged CHIKV 181/25 nsP2 extracted from Escherichia coli Rosetta 2 at 200 uM preincubated for 30 mins followed by ATP addition measured after 1 hr by ADP-Glo assay relative to control. To be noted: time 90.0 min.
The subject of data set [3] is Chikungunya virus. Briefly: Antiviral activity against CHIKV 181/25 expressing nLuc-capsid gene infected in human MRC5 cells assessed as inhibition of viral replication at 40 uM preincubated with cells for 1 hr followed by viral infection measured after 6 hrs post-infection by Nano-glo luciferase assay relative to control. It is filed as functional. Particulars: for inhibition at 40 µM: 181/25, MRC5, time 7 hrs; for inhibition: time 7.0 hrs.

The next data set has as its system MRC5. Kind of data set: Cytotoxicity against human MRC5 cells at 10 to 40 uM by Cell Titer Glo assay. To be noted: mrc5, 40 µM, dose 10-40 µM. The data set is classed as toxicity, cell-based. On the technique in general: Cellular ATP, detected with luciferase, serves as a proxy for viable cell number.
Another data set concerns the target Polyprotein P1234 (Chikungunya virus (strain S27-African prototype) (CHIKV), UniProt Q8JUX6). Briefly: Inhibition of N-terminal 6-His/SUMO-tagged CHIKV 181/25 nsP2 extracted from Escherichia coli Rosetta 2 preincubated for 30 mins followed by ATP addition measured after 1 hr by ADP-Glo assay. (ADP-Glo turns the ADP formed in a reaction into a luminescent signal.)

The nature of data set [4]: Aqueous solubility of compound in PBS at pH 7.4. It is filed as physicochemical.

Each structure is given as a SMILES string. pIC50: −log10 of the molar value. Converted amounts (≈) assume the structure as drawn. The source made the active and inactive calls. The rule behind the calls is not given here.

Polyprotein P1234, sequence (Q8JUX6 536-1333 limits assumed): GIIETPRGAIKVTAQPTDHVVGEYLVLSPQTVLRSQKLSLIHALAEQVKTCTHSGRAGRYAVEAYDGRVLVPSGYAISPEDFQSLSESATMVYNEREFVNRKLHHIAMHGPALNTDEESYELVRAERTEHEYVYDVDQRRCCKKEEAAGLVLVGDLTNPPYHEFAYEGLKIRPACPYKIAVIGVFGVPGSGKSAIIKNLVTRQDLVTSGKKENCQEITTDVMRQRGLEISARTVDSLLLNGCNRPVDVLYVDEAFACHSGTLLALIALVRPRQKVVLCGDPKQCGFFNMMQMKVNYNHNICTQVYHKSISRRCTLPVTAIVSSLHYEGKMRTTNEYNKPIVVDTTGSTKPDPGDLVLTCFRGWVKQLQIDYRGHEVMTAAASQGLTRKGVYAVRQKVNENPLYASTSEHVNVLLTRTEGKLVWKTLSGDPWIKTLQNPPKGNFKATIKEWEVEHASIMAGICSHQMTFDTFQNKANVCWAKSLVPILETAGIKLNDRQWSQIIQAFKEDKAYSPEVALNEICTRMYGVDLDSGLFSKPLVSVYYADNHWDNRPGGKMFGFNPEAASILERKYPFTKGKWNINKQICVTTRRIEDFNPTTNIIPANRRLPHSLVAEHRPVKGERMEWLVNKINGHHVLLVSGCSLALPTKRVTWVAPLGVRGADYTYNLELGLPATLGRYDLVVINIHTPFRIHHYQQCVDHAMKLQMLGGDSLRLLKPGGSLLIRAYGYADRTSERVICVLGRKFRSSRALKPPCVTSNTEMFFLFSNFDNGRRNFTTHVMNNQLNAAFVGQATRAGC

For orientation: inhibition means the relative decrease from the control value, in per cent. Turning to `CS(=O)(=O)NCC1CCOC2(CCN(C(=O)C3(c4ccc(Cl)cc4)CCCC3)CC2)C1` (configuration not stated), the EC50 with Chikungunya virus [1] was over 39.8 µM. In addition, the inhibition entry in the data set on Chikungunya virus [2] is “inactive”. Also, in the data set on Chikungunya virus [3], the inhibition at 40 µM turned out to be 70%. In the data set on MRC5, the Activity result is “Non-toxic”.

On to `Cc1ccc(C2(C(=O)N3CCC4(CC3)CC(CNS(C)(=O)=O)CCO4)CCCC2)cc1` (configuration not stated), for which the inhibition result in the data set on Chikungunya virus [2] and in the data set with Chikungunya virus [3] was “inactive” in each case. Moreover, the Activity result in the data set on MRC5 is reported as “Non-toxic”.

The term pIC50 denotes −log10 of the IC50, conventionally taken in molar units. Low readings indicate a large IC50, high ones a small IC50. By solubility (kinetic) is commonly meant the concentration staying in solution when a stock, usually in DMSO, is diluted into the medium. In the case of `O=C(NCC1CCOC2(CCN(C(=O)C3(c4ccccc4)CCCC3)CC2)C1)c1ccncc1` (configuration not stated), in the data set with Chikungunya virus [1], the EC50 is 10 µM. Also, the pIC50 on Polyprotein P1234 was under 4.40. The compound further yielded an inhibition with Chikungunya virus [2] of 70%. The same compound came in with a solubility (kinetic) in data set [4] of 170 µM (≈ 78.5 µg/mL). Further, in the data set on MRC5, the Activity result is on record as “Non-toxic”.

As for `O=C(NCC1CCOC2(CCN(C(=O)C3(c4ccccc4)CCCC3)CC2)C1)C1CC1` (configuration not stated), the EC50 in the data set with Chikungunya virus [1] is 3.98 µM. For the same compound, at Polyprotein P1234, the pIC50 is under 4.40. This compound yielded an inhibition in the data set on Chikungunya virus [2] of 80%. The same compound gave a kinetic solubility in data set [4] of 160 µM (≈ 67.9 µg/mL). Besides, the Activity entry in the data set with MRC5 is “Non-toxic”.

`CC(C)(C)NC(=O)NCC1CCOC2(CCN(C(=O)C3(c4ccccc4)CCCC3)CC2)C1` (configuration not stated): in the data set on Chikungunya virus [1], the EC50 was 10 µM. In addition, the pIC50 at Polyprotein P1234 was under 4.40. The inhibition in the data set on Chikungunya virus [2] came out at 80%. In data set [4], this compound yielded a kinetic solubility of 170 µM (≈ 77.5 µg/mL). The Activity entry with MRC5 is recorded as “Non-toxic”.

As for `COc1ccc(C2(C(=O)N3CCC4(CC3)CC(CNS(C)(=O)=O)CCO4)CCCC2)cc1` (configuration not stated), the inhibition entry in the data set with Chikungunya virus [2] and with Chikungunya virus [3] was “inactive” each time. For the same compound, in the data set on MRC5, the Activity entry is “Non-toxic”.

Turning to `CCS(=O)(=O)NCC1CCOC2(CCN(C(=O)C3(c4ccccc4)CCCC3)CC2)C1` (configuration not stated), the EC50 in the data set with Chikungunya virus [1] was 3.16 µM. Further, at Polyprotein P1234, the pIC50 is under 4.40. This compound also had an inhibition with Chikungunya virus [2] of 70%. The kinetic solubility in data set [4] came to 230 µM (≈ 103 µg/mL). For the same compound, the Activity result with MRC5 is recorded as “Non-toxic”.

As to `CS(=O)(=O)NCC1CCOC2(CCN(C(=O)C3(c4ccccc4)CCCCC3)CC2)C1` (configuration not stated), the EC50 in the data set with Chikungunya virus [1] was 15.8 µM. In addition, at Polyprotein P1234, the pIC50 is under 4.40. This compound also registered an inhibition with Chikungunya virus [2] of 80%. Further, the kinetic solubility in data set [4] came out at 230 µM (≈ 103 µg/mL). In addition, the Activity result with MRC5 is recorded as “Non-toxic”.

As to `CN(CC1CCOC2(CCN(C(=O)C3(c4ccccc4)CCCC3)CC2)C1)C(=O)c1ccccn1` (configuration not stated), the EC50 with Chikungunya virus [1] was 5.01 µM. For the same compound, the pIC50 on Polyprotein P1234 was under 4.40. Moreover, the inhibition in the data set on Chikungunya virus [2] was 80%. Besides, the kinetic solubility in data set [4] amounted to 180 µM (≈ 85.6 µg/mL). In the data set with MRC5, the Activity entry was “Non-toxic”.

For `COc1cccc(C(=O)NCC2CCOC3(CCN(C(=O)C4(c5ccccc5)CCCC4)CC3)C2)c1` (configuration not stated), the EC50 with Chikungunya virus [1] is 5.01 µM. On Polyprotein P1234, this compound gave a pIC50 of under 4.40. Also, in the data set on Chikungunya virus [2], the inhibition was found to be 70%. The solubility (kinetic) in data set [4] was 19 µM (≈ 9.32 µg/mL). Also, in the data set with MRC5, the Activity result is given as “Non-toxic”.

As to `O=C(N1CCC2(CC1)CC(CNS(=O)(=O)c1ccccc1)CCO2)C1(c2ccccc2)CCCC1` (configuration not stated), in the data set with Chikungunya virus [1], the EC50 is 3.98 µM. The pIC50 at Polyprotein P1234 is under 4.40. Further, in the data set on Chikungunya virus [2], the inhibition was determined as 40%. Moreover, the solubility (kinetic) in data set [4] was 1 µM (≈ 0.497 µg/mL). Besides, the Activity entry in the data set on MRC5 was “Non-toxic”.

`CN(C)S(=O)(=O)NCC1CCOC2(CCN(C(=O)C3(c4ccncc4)CCCC3)CC2)C1` (configuration not stated): the inhibition result in the data set with Chikungunya virus [2] and in the data set on Chikungunya virus [3] was “inactive” in each case. Besides, in the data set with MRC5, the Activity result is on record as “Non-toxic”.

`O=C(NCC1CCOC2(CCN(C(=O)C3(c4ccccc4)CCCC3)CC2)C1)c1ccccn1` (configuration not stated): in the data set on Chikungunya virus [1], the EC50 is 1.58 µM. For the same compound, the pIC50 at Polyprotein P1234 was under 4.40. In addition, the inhibition in the data set on Chikungunya virus [2] stood at 90%. For the same compound, the solubility (kinetic) in data set [4] amounted to 190 µM (≈ 87.7 µg/mL). The Activity result in the data set on MRC5 is on record as “Non-toxic”.

With `CN(C)S(=O)(=O)NCC1CCOC2(CCN(C(=O)C3(c4ccccc4)CCCC3)CC2)C1` (configuration not stated), the EC50 with Chikungunya virus [1] is 2.51 µM. At Polyprotein P1234, this compound gave a pIC50 of under 4.40. Besides, the inhibition in the data set on Chikungunya virus [2] came out at 90%. Also, in data set [4], the solubility (kinetic) worked out at 200 µM (≈ 92.7 µg/mL). The Activity entry with MRC5 is listed as “Non-toxic”.

`CN(C)S(=O)(=O)NCC1CCOC2(CCN(C(=O)C3(c4cccnc4)CCCC3)CC2)C1` (configuration not stated): in the data set on Chikungunya virus [1], the EC50 is over 39.8 µM. In addition, in the data set with Chikungunya virus [2], the inhibition result was “inactive”. In addition, the inhibition at 40 µM in the data set on Chikungunya virus [3] amounted to 50%. Besides, in the data set with MRC5, the Activity entry is recorded as “Non-toxic”.
